The target of series [1] is 5-hydroxytryptamine receptor 2A (Homo sapiens, UniProt P28223). The series is described as follows: biochemical. In kind it is cell-based, CHO-K1.
The target of series [2] is hERG (KCNH2) potassium channel (Homo sapiens, UniProt Q12809). Briefly: in vitro. As to conditions: CHO cells expressing human cloned ERG.
Series [3] addresses 5-hydroxytryptamine receptor 7 (Homo sapiens, UniProt P34969). Briefly: biochemical. In kind it is cell-based, CHO-K1.
The target of another series is D(2) dopamine receptor (Homo sapiens, UniProt P14416). Briefly: biochemical.
Sequence of D(2) dopamine receptor (P14416 whole entry): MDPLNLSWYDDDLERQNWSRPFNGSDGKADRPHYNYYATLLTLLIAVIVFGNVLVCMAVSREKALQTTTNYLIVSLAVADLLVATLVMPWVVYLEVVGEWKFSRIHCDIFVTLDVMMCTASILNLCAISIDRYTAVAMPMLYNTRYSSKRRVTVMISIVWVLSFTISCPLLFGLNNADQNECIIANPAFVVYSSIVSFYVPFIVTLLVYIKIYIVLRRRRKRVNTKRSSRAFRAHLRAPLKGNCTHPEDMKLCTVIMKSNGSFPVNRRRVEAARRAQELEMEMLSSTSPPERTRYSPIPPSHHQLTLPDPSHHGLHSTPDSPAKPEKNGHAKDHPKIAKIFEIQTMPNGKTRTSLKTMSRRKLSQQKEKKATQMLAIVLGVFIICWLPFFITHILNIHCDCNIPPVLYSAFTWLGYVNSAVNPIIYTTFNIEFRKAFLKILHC
In series [4] the target is 5-hydroxytryptamine receptor 6 (Homo sapiens, UniProt P50406). Briefly: biochemical.
Sequence of 5-hydroxytryptamine receptor 6 (P50406 whole entry): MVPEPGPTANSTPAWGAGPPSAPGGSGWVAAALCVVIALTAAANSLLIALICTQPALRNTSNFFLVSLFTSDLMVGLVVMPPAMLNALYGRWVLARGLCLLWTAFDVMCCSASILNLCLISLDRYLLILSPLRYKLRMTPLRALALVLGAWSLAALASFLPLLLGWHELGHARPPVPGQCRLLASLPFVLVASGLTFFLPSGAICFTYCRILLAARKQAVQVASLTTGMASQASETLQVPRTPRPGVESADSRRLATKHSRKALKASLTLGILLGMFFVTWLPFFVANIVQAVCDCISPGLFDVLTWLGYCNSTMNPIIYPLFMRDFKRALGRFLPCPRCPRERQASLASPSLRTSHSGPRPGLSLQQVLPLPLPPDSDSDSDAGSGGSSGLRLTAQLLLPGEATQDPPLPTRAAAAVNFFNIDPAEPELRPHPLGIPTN

Results on 15 compounds are retold here after ChEMBL document CHEMBL3286108, “Novel arylsulfonamide derivatives with 5-HT₆/5-HT₇ receptor antagonism targeting behavioral and psychological symptoms of dementia” (J Med Chem, 2014).

The Ki is a dissociation constant, usually derived from enzyme kinetics or from competition with a known ligand. What is called inhibition is the change of the read-out against control, counted positive when it falls. Read a high inhibition as a response far below the control.

Sequence of hERG (KCNH2) potassium channel (Q12809 whole entry): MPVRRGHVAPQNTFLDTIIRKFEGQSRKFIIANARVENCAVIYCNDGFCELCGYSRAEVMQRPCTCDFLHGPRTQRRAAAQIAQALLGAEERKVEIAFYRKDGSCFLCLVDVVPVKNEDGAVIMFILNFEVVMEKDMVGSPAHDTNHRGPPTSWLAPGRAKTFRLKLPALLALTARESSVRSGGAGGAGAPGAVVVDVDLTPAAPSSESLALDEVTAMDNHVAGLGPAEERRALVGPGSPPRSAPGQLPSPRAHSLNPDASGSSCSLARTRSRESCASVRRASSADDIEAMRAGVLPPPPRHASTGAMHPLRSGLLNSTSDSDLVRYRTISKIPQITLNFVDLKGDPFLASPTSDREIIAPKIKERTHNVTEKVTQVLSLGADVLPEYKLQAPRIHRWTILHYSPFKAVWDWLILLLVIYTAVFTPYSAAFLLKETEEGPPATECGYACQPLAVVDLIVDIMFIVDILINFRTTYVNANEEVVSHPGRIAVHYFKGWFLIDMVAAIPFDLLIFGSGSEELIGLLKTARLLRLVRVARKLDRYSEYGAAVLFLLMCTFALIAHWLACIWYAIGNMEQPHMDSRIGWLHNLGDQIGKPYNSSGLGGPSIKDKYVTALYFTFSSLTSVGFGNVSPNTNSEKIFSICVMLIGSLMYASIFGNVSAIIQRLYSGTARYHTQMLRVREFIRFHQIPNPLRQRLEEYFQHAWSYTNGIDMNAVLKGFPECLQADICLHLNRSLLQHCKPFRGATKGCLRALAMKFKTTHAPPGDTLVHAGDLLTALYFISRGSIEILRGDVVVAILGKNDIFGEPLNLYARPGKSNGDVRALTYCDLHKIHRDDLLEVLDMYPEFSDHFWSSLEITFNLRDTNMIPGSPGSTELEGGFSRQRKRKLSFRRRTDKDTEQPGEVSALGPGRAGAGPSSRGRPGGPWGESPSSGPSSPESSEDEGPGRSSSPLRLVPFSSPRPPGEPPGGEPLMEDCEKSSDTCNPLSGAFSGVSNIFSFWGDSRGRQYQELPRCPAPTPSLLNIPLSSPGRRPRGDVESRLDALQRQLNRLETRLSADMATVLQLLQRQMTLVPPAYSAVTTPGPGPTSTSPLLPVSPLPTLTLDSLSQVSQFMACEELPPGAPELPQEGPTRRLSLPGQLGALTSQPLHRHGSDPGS
Sequence of 5-hydroxytryptamine receptor 7 (P34969 whole entry): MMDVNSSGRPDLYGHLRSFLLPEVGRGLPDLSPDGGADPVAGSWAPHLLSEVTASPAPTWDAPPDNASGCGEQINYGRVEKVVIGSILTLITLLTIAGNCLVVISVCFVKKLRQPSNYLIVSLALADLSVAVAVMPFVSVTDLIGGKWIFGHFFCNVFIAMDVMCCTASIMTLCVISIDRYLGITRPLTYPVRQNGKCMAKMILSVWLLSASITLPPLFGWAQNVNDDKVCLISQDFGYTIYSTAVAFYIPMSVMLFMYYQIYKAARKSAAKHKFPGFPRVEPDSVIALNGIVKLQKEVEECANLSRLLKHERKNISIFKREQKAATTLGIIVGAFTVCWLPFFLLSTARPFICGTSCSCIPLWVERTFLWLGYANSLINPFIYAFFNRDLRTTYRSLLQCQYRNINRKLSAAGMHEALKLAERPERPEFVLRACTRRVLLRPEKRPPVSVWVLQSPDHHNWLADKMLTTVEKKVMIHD
Sequence of 5-hydroxytryptamine receptor 2A (P28223 whole entry): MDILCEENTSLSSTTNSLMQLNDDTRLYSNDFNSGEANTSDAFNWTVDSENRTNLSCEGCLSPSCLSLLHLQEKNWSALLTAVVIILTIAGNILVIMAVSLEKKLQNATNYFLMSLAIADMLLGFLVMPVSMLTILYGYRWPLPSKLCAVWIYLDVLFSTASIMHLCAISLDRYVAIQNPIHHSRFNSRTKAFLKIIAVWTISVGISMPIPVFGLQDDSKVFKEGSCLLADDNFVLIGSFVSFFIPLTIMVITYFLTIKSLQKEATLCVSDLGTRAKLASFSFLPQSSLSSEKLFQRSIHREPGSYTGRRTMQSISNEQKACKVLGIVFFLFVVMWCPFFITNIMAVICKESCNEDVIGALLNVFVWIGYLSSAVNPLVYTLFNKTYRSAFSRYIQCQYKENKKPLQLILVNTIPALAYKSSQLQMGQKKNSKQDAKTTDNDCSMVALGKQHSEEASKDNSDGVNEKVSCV

For `O=S(=O)(NCCCN1CCN(c2nsc3ccccc23)CC1)c1cccs1`, the Ki in series [1] is 9.1 nM; in series [3], 23 nM; at D(2) dopamine receptor, 56 nM; in series [4], 140 nM. In series [2], this compound yielded an inhibition at 1 µM of 33%.
As to `O=S(=O)(NCCCN1CCN(c2nsc3ccccc23)CC1)c1ccc(F)c(Cl)c1`, the Ki in series [1] came to 14 nM; in series [3], 9.5 nM; at D(2) dopamine receptor, 37 nM; in series [4], 5.1 nM. In addition, at 1 µM the inhibition in series [2] was 36%.
For the compound `Cc1c(S(=O)(=O)NCCCN2CCN(c3noc4ccccc34)CC2)sc2ccc(F)cc12`, the Ki in series [1] was 1200 nM; in series [3], 200 nM; on D(2) dopamine receptor, greater than 10000 nM; in series [4] it was greater than 10000 nM. The compound further gave an inhibition at 1 µM in series [2] of 15%.
For `O=S(=O)(NCCCCN1CCN(c2noc3ccccc23)CC1)c1ccc(Cl)c(Cl)c1`, the Ki came out at 10 nM in series [1], 0.7 nM in series [3], 57 nM at D(2) dopamine receptor and 29 nM in series [4]. Further, the inhibition at 1 µM in series [2] is 24%.
Consider `O=S(=O)(NCCCCN1CCN(c2noc3ccccc23)CC1)c1ccc2cc(Cl)ccc2c1`, for which the Ki in series [1] stood at 7.7 nM; in series [3], 6.7 nM; on D(2) dopamine receptor, 51 nM; in series [4], 18 nM. Also, the inhibition at 1 µM in series [2] amounted to 9%.
In the same order, the values of `Cc1cccc(S(=O)(=O)NCCCN2CCN(c3nsc4ccccc34)CC2)c1` are 1.3 nM, 1.7 nM, 13 nM, 22 nM and 14%.
Take `Cc1cccc(S(=O)(=O)NCCN2CCN(c3nsc4ccccc34)CC2)c1`: the Ki in series [1] came to 8.8 nM; in series [3] it was 3.8 nM; at D(2) dopamine receptor it was 43 nM; in series [4] it was 430 nM. This compound also had an inhibition at 1 µM in series [2] of 4%.
In the same order, the values of `O=S(=O)(NCCCN1CCC(c2noc3cc(F)ccc23)CC1)c1cccs1` are 5.1 nM, 0.9 nM, 8.7 nM, 66 nM and 53%.
`O=S(=O)(NCCCN1CCN(c2nsc3ccccc23)CC1)c1cc2ccccc2s1`: the Ki in series [1] was 11 nM; in series [3], 13 nM; on D(2) dopamine receptor, 48 nM; in series [4], 63 nM. Further, the inhibition at 1 µM in series [2] stood at 12%.
For `O=S(=O)(NCCCCN1CCN(c2noc3ccccc23)CC1)c1ccc(OC(F)(F)F)cc1`, in that order: 210 nM, 270 nM, 400 nM, 4800 nM and 24%.
In the case of `O=S(=O)(NCCCN1CCC(c2noc3cc(F)ccc23)CC1)c1ccc(OC(F)(F)F)cc1`, the inhibitory constant (Ki) is 3.8 nM in series [1], 8.8 nM in series [3], 33 nM at D(2) dopamine receptor and 35 nM in series [4]. Testing at 1 µM in series [2] gave an inhibition of 87%.
As for `O=S(=O)(NCCCN1CCN(c2nsc3ccccc23)CC1)c1ccc(Cl)c(Cl)c1`, the Ki in series [1] was 25 nM; in series [3], 20 nM; at D(2) dopamine receptor it was 7.8 nM; in series [4], 15 nM. In addition, the inhibition at 1 µM in series [2] was found to be 21%.
For `O=S(=O)(NCCCCN1CCC(c2noc3cc(F)ccc23)CC1)c1cccc2scnc12`, in that order: 8.5 nM, 13 nM, 25 nM, 70 nM and 69%.
With `O=S(=O)(NCCCCN1CCN(c2nsc3ccccc23)CC1)c1ccc2cc(Cl)ccc2c1`, the Ki in series [1] amounted to 8.1 nM; in series [3] it was 33 nM; at D(2) dopamine receptor it was 49 nM; in series [4], 61 nM. This compound also displayed an inhibition at 1 µM in series [2] of 12%.
For `O=S(=O)(NCCCCN1CCN(c2noc3ccccc23)CC1)c1cccc2scnc12`, in that order: 6100 nM, 57 nM, 170 nM, greater than 10000 nM and 26%.
